Assay results reported in patent US20110124661A1, “OXAZOLOBENZIMIDAZOLE DERIVATIVES” (MERCK SHARP & DOHME CORP., priority 2008, published 2011).

What follows are molecules tested against T1, recombinant human mGluR2 (Homo sapiens, UniProt Q14416) (assay: FLIPR Ca2+ mobilization assay, potentiation of glutamate response). Details: potentiation after EC20 glutamate (900 nM); CHO dhfr- cells expressing human mGluR2 and Gα16; read-out: Representative FLIPR EC50 Values.
T1 construct: expressed in transfected cells
T1 sequence (Q14416 19-872): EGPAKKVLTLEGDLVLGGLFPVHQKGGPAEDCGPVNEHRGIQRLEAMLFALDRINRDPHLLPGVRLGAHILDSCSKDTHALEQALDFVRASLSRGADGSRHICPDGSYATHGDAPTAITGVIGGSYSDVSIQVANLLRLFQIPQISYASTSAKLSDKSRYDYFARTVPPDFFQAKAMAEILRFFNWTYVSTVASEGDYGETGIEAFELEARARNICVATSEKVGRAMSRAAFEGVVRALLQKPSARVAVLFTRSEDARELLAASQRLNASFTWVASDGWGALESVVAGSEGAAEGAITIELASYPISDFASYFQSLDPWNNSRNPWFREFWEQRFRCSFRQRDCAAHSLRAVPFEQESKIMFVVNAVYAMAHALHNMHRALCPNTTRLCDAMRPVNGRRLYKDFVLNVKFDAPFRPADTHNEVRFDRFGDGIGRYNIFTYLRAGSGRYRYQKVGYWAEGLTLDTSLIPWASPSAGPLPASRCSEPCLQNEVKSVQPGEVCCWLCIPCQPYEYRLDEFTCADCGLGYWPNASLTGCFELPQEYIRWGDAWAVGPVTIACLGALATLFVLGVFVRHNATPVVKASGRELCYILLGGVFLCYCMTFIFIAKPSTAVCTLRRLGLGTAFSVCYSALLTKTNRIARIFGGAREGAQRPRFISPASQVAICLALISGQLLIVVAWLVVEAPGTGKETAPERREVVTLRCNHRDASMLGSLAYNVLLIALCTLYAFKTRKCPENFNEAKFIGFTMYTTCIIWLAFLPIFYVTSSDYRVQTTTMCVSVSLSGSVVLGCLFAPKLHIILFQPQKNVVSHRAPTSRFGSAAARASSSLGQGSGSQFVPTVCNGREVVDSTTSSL
Format: cell-based
Method: Inhibition constants are determined as follows. The compounds of the present invention may be tested in a […] (FLIPR) based assay. This assay is a common functional assay to monitor Ca^2+ mobilization in whole cells expressing recombinant receptor coupled with a promiscuous G-protein. CHO dhfr-cells stably expressing recombinant human mGluR2 and Gα16 loaded with Fluo-4 AM (Invitrogen, Carlsbad Calif.) are treated with dose responses of compounds and the Ca^2+ response is monitored on a FLIPR384 (Molecular Devices, Sunnydale Calif.) for agonist activity. The potentiation response is monitored after a subsequent addition of an EC20 concentration of glutamate (900 nM). The maximum calcium response at each concentration of compound for agonist or potentiation are plotted as dose responses and the curves are fitted with a four parameters logistic equation giving EC50 and Hill coefficient using the iterative non linear curve fitting software program.
Work on `CC(C)(C)c1ccc(OCC2Cn3c(nc4cccnc43)O2)cc1` (racemic) [Example 2-16, (RS)-2-[(4-tert-butylphenoxy)methyl]-2,3-dihydro[1,3]oxazolo[2′,3′:2,3]imidazo[4,5-b]pyridine] yielded an EC50 of 261 nM. Molecule `CC(C)(C)c1ccc(OC[C@@H]2Cn3c(nc4cc(C#N)ccc43)O2)cn1` [Example 1-6, (2S)-2-{[(6-tert-butylpyridin-3-yl)oxy]methyl}-2,3-dihydro[1,3]oxazolo[3,2-a]benzimidazole-7-carbonitrile] has an EC50 of 28 nM. With `CC(C)(C)c1cc(OC[C@@H]2Cn3c(nc4cc(C#N)ccc43)O2)ccn1` [Example 1-12, (2S)-2-{[(2-tert-butylpyridin-4-yl)oxy]methyl}-2,3-dihydro[1,3]oxazolo[3,2-a]benzimidazole-7-carbonitrile] the EC50 was 206 nM. `CC(C)(C)c1ccc(OC[C@@H]2Cn3c(nc4cc(F)c(F)cc43)O2)cn1` [Example 1-17, (2S)-2-{[(6-tert-bulylpyridin-3-yl)oxy]methyl}-6,7-difluoro-2,3-dihydro[1,3]oxazolo[3,2-a]benzimidazole] showed an EC50 of 58 nM. In the case of `FC(F)(F)c1ccc(OC[C@@H]2Cn3c(nc4ccccc43)O2)cn1` [Example 1-21, (2S)-2-({[6-(trifluoromethyl)yridine-3-yl]oxy}methyl)-2,3-dihydro[1,3]oxazolo[3,2-a]benzimidazole], the EC50 is reported as 507 nM. “(2S)-2-{[4-(2,2,2-trifluoro-1,1-dimethylethyl)phenoxy]methyl}-2,3-dihydro[1,3]oxazolo[3′,2′:1,2]imidazo[4,5-c]pyridine [Example 2-8]” was tested, and the EC50 was 21 nM.
